# Measured values taken from patent US10485814B2, “Nicotinamide riboside analogs and pharmaceutical compositions and uses thereof” (GlaxoSmithKline Intellectual Property (No. 2) Limited, priority 2014, dated 2019).
# Legend:
# [1] = test system: HaCaT cells (a human keratinocyte cell line); test: Intracellular NAD measurement in HaCaT cells (ADPR cyclase enzymatic assay, absorbance 405 nm); type: cell-based
# Method: HaCaT cells (AddexBio Technologies, San Diego, Calif., Passage 16-19) were grown in Medium DMEM/GlutMax (Life technologies, Grand Island, N.Y.) supplemented with 10% FBS (Life technologies) and Non-essential amino acids (NEAA, Life technologies) and then seeded in 12-well plates (Corning, Tewksbury, Mass.) with a density at 2×10^5 cells per well and 2 ml of culture medium in each well for overnight.
# Stock solution of dihydronicotinamide riboside (NRH, GSK3008320A, GSK, RTP, NC) was prepared in ethanol at 100 mM (25.6 mg/ml) and stored at −20° C. Cells were treated with different concentrations of NRH for 3 hrs, washed twice with PBS containing 5 mM EDTA, and then subject to Nicotinamide adenine dinucleotide (NAD) measurement. In brief, acetonitrile (ACN) lysis buffer (Ammonium Acetate (50 mM) and 90% acetonitrile) was added to each well (200 μl/well) to lyse the cells at RT for 5-10 mins by gently rotating on a culture plate shaker at a low speed. Enzyme master mix (300 μM of 5-Amino-(3,4′-bipyridin)-6(1H)-one (Inamrinone) (Sigma-Aldrich), a substrate for ADP ribosyl cyclase (ADPR cyclase)) and 30 nM ADPR Cyclase (Sigma, St. Louis, Mo.), 7.5 μM of N-(2-fluoro-4-(methylsulfonyl)phenyl)-2-methyl-6-(thiazol-5-yl)isonicotinamide (a CD38 inhibitor) in 75 mM HEPES pH7 buffer (Life Technologies)) was added to the lysed cells (400 μl of enzyme master mix/well). Enzymatic reaction was incubated at RT for ˜30 min. At the end of incubation, the supernatant (200 μl) of the reaction solution from each well was transferred to each well of a 96-well plate and absorbance was read twice in the 96-well plate at 405 nm using a plate reader (Spectra Maxplus, Molecular Devices, Sunnyvale, Calif.). A mixture of enzyme master mix and ACN extraction solution at 2:1 ratio was used as a blank reference. NAD (Sigma) was used as a positive control.
# HaCaT cells were grown as described in example 23 in the regular cell culture DMEM medium as described earlier or in the Epilife medium without nacinamide (Life Technologies). Cells were treated with different concentrations of NRH or niacinamide (NIA, DSM nutritional products) for 3 hrs, washed twice with PBS containing 5 mM EDTA, and then subject to Nicotinamide adenine dinucleotide (NAD) measurement as described in example 23. A mixture of enzyme master mix and ACN extraction solution at 2:1 ratio for a blank reference. NAD (Sigma) was used as a positive control. […] Both the CD38 inhibitor and Niacinamide increased NAD in the HaCaT cells cultured in the Vit B3 depleted culture medium, and the induction of NAD by niacinamide was dose-dependent (solid bars). However, the induction of NAD by niacinamide (highest at ˜1.5 fold) was low compared to those by NRH. Therefore, NRH is a stronger NAD inducer compared to a CD38 inhibitor or Niacinamide.
# (§1) HaCaT cells were grown in regular culture media as described in example 1 and seeded in 12-well plates with density at 2×10^5 cells per well and 1 ml of culture medium in each well. NRH stock solution was prepared in ethanol at 100 mM (25.6 mg/ml) and stored at −20° C. Stock solutions of NRH esters were made at 50 mM in DMSO (see FIG. 9B for compound info). Cells were treated with NRH esters and NRH at 150 μM for 6 and 16 hrs, washed twice with PB S containing 5 mM EDTA, and then subject to Nicotinamide adenine dinucleotide (NAD) measurement as described in example 23.
# HaCaT cells were grown in regular culture media as described above and seeded in 12-well plates with density at 2×10^5 cells per well and 1 ml of culture medium in each well. NRH stock solution was prepared in ethanol at 100 mM (25.6 mg/ml) and stored at −20° C. NRH (200 μM) was used as a positive control. Because of the possible solubility issue related to NRH monoC16, fatty acid-free bovine serum albumin (defatted BSA, Sigma) was used as a carrier for the compound. NRH monoC16 stock solution (100×) was complexed with defatted BSA ([…]) prior to the treatment, resulting in a NRH monoC16 stock solution (10 ×). […]
# [2] = Gravimetric Vapor Sorption (GVS); type: physicochemical; conditions: 90% RH, 25° C.
# Method: Gravimetric Vapor Sorption (GVS): Samples were analyzed using a VTI corporation (now part of TA Instruments) SGA-100 with Cahn microbalance equipped with quartz sample and reference pans. Samples were dried in the SGA-100 under dry nitrogen for 5 hours at 25° C. followed by a moisture absorption step ramp from 5% relative humidity (RH) to 95% or 90% RH followed by a desorption step ramp back to 5% or 10% RH (all steps at 25° C.). The samples were held at each % RH step for 4 hours.
# [3] = Precipitation on addition of stock solution to cell culture media; type: physicochemical
# Method: as §1
# HaCaT cells were grown in regular culture media as described above and seeded in 12-well plates with density at 2×10^5 cells per well and 1 ml of culture medium in each well. NRH stock solution was prepared in ethanol at 100 mM (25.6 mg/ml) and stored at −20° C. NRH (200 μM) was used as a positive control. Because of the possible solubility issue related to NRH monoC16, fatty acid-free bovine serum albumin (defatted BSA, Sigma) was used as a carrier for the compound. NRH monoC16 stock solution (100×) was complexed with defatted BSA ([…]) prior to the treatment, resulting in a NRH monoC16 stock solution (10 ×). NRH monoC16 was then added to the culture media giving a final BSA concentration of 100 μM. […] Defatted BSA was also added to the control samples at a final concentration of 100 μM. […]
# HaCaT cells = test: H2O2-induced reactive oxygen species (ROS) in HaCaT cells (CellROX deep red); type: cell-based, human; conditions: 3 hr pre-incubation then 250 μM H2O2, Hydroxyterosol 0.005%, niacinamide 4.5 mM, NRH several concentrations
# Method: HaCaT cells were grown as described in example 23 and were seeded in 96-well plates (Nunc™ black with optical bottom, Thermo Fisher Scientific, Inc., Waltham, Mass.) with a density at 2×10^4 cells per well and 100 μl medium in each well, and grown overnight before treatments. Stock solutions of NRH and other test compounds were prepared and diluted to 2× of final treatment concentrations in DMEM medium in 96-well storage plate as indicated in the FIG. 11. HaCaT Cells were treated in triplicates by adding 100 μl of diluted solutions of test compounds (2×) to each well containing 100 μl medium already. Cells were incubated in the presence of test compounds for 3 hrs. At the end of 3 hr incubation, cells were washed once with 200 μl DPBS with Ca^++ and Mg^++ (Life Technologies) and then fed with 100 μl DMEM medium each well containing H2O2 at 250 μM (as a ROS (reactive oxygen species) inducer, Sigma). After 30 min incubation, cells were washed once with 200 μl DPBS with Ca^++ and Mg^++ and CellROX deep red reagent (2.5 mM stock solution, Life Technologies) was added to the medium to a final concentration of 5 μM. After 1 hr incubation at 37° C., 5% CO2, Cells were washed for 3 times with DPBS, fluorescence signal was read at Ex. 640 nm and Em. 665 nm in Biotek Synergy H4 microplate reader (BioTek, Winooski, Vt.). Untreated cells were served as controls (normalized to 1). All the treated samples were normalized to the untreated control.
# [4] = test system: Reconstructed human epidermis (EpiDerm, EPI-200); test: UVB-induced inflammation mediators in reconstructed epidermal equivalents; type: cell-based; conditions: topical 1 hr pre-treatment, NRH 0.1% or niacinamide 3%, UVB 150 mJ/cm^2, media 6 hr post irradiation
# Excerpt: Solar Ultraviolet (UV) light exposure on skin causes photoaging, sunburn, DNA damages and carcinogenesis. UV radiation (UVR) also results in inflammation, which can be measured in vitro by pro-inflammatory mediators, e.g., TNF-α, IL-8. The in vitro reconstructed human epidermis (RHE) model is used to evaluate the anti-inflammatory effect of NRH.
# Reconstructed human epidermis (EpiDerm, EPI-200, made of normal human epidermal keratinocytes, MatTek, Ashland, Mass.), were placed into media (EPI-100-ASY, 1.0 ml/well of 6-well plates) and incubated overnight at 37° C./5% CO2. The media was replenished with fresh culture media prior to study. NRH at 0.1% and niacinamide at 3% in vehicle (50% H2O/35% ethanol/15% propylene glycol, v/v/v) were applied topically at 6 μl and then gently spread onto the skin equivalents (˜20 rotations) using the rubber side of a plunger of 1 ml syringe. Vehicle was served as an untreated control. After 1 hr pre-treatment with NRH, niacinamide, or vehicle control, the EpiDerm tissues were transferred to a sterile 6-well plate containing 1 ml of DPBS per well and then exposed to UVB at 150 mJ/cm^2. The Newport Solar Simulator System (Power unit 69920, and Lamp 91192-1000, Newport Corporate, Irvine, Calif.) was used as the UVB emitter to achieve a UVB irradiation of 150 mJ/cm^2. Measurement of the irradiation was taken using an ILT-1400 Handheld, Portable Radiometer/Photometer (International Light Technologies, Inc., Peabody, Mass.) with a UVB detector (SEL240/T2ACT5, 235-307 nm, International Light Technologies, Inc.). After UVB irradiation, EpiDerm tissues were transferred back to the 6-well plate containing media and incubated at 37° C./5% CO2 for 6 hours. At the end of the incubation (6 hr post UVB irradiation), culture media were collected for the measurement of IL-8, and TNF-α concentration by MagPix (Millipore, HCYTOMAG-60K).
# Human dermal fibroblasts = test: TNFα-induced gene expression in dermal fibroblasts (QPCR); type: cell-based; conditions: TNFα 10 ng/ml, 30 hr
# Method: Human dermal fibroblasts were grown in regular culture media as described in example 23 above and seeded in 12-well plates at 2×10^5 cells per well for overnight. Cells were then replenished with fresh medium and treated with TNFα (10 ng/ml) with and without NRH (200 μM) for 30 hr. At the end of the incubation, cells were washed once with HBSS with Ca^2+ and Mg^2+ (Life Technologies), and subject to RNA isolation and QPCR analyses.
# [5] = HaCaT in Vit B3 depleted culture medium, 3 hrs
compound,measurement,setting,value
CCCCCCCCCCCCCCCC(=O)OC[C@H]1O[C@@H](N2C=CCC(C(N)=O)=C2)[C@H](O)[C@@H]1O [NRH monoC16],NAD boosting activity,"[1]; HaCaT, 150 μM, 6 and 16 hrs",higher NAD boosting activity compared to all the other tested NR esters
same,activity after 24 hr compared with 6 hr treatment,"[1]; HaCaT, defatted BSA carrier",a higher activity was observed
same,NAD levels,"[1]; HaCaT, different concentrations, defatted BSA carrier (100 μM), 6 and 24 hrs",increases NAD levels in a dose dependent manner
same,NAD boosting activity relative to NRH,"[1]; HaCaT, same concentrations, defatted BSA carrier",slightly lower than that of NRH
same,GVS weight gain from the dried state,[2],approximately 7%
same,precipitation when stock solution added to the media,"[3]; 50 mM DMSO stock added to culture media, 150 μM",noticeable precipitations occurred
same,precipitation in culture media,"[3]; stock complexed with defatted BSA, final BSA 100 μM",no precipitation was observed
"NC(=O)c1cccnc1 [Niacinamide, pyridine-3-carboxamide, reference compound]",NAD elevation,"[1]; HaCaT in DMEM medium with Vit B3, highest tested doses, 3 hrs",did not lead to NAD elevation
same,NAD level,[1]; [5],increased NAD
same,dose dependence of induction of NAD,[1]; [5],dose-dependent
same,induction of NAD (highest),[1]; [5],~1.5 fold
same,H2O2-induced ROS,HaCaT cells,did not inhibit
same,UVB-induced IL-8,[4],not
same,UVB-induced TNF-α,[4],not
same,UVB-induced IL-8,[4]; listed as niacinamide,did not inhibit
same,UVB-induced TNF-α,[4]; listed as niacinamide,did not inhibit
TNF-α,COX-2 gene expression,Human dermal fibroblasts,induced COX-2 gene expression
